Measurements taken from ChEMBL document CHEMBL5233274, “Current Landscape and Future Perspective of Oxazolidinone Scaffolds Containing Antibacterial Drugs” (J Med Chem, 2021).
Values after ≈ are worked out from the molar mass of the structure shown.

Experiments:
Staphylococcus aureus [1] = assay: Antibacterial activity against Staphylococcus aureus NCIM 5257 assessed as inhibition of bacterial growth incubated for 24 hrs by serial broth dilution method; type: functional
Bacillus subtilis [2] = assay: Antibacterial activity against Bacillus subtilis NCIM 2097 assessed as inhibition of bacterial growth incubated for 24 hrs by serial broth dilution method; type: functional
Enterococcus faecalis [3] = assay: Antibacterial activity against Streptococcus faecalis NCIM 2080 assessed as inhibition of bacterial growth incubated for 24 hrs by serial dilution method; type: functional
Escherichia coli [4] = assay: Antibacterial activity against Escherichia coli NCIM 2065 assessed as inhibition of bacterial growth incubated for 24 hrs by serial dilution method; type: functional
Klebsiella pneumoniae = assay: Antibacterial activity against Klebsiella pneumoniae NCIM 5289 assessed as inhibition of bacterial growth incubated for 24 hrs by serial dilution method; type: functional
Pseudomonas aeruginosa [5] = assay: Antibacterial activity against Pseudomonas aeruginosa NCIM 5210 assessed as inhibition of bacterial growth incubated for 24 hrs by serial dilution method; type: functional
Candida albicans [6] = assay: Antifungal activity against Candida albicans NCIM 3628 assessed as inhibition of fungal growth incubated for 48 hrs by serial dilution method; type: functional
Aspergillus niger = assay: Antifungal activity against Aspergillus niger NCIM 1317 assessed as inhibition of fungal growth incubated for 48 hrs by serial dilution method; type: functional
Escherichia coli [7] = assay: Antibacterial activity against Escherichia coli assessed as inhibition of bacterial growth incubated for 18 hrs by CLSI protocol based method; type: functional
Pseudomonas aeruginosa [8] = assay: Antibacterial activity against Pseudomonas aeruginosa assessed as inhibition of bacterial growth incubated for 18 hrs by CLSI protocol based method; type: functional
Fusarium oxysporum = assay: Antimicrobial activity against Fusarium oxysporum assessed as inhibition zone at 200 ug/ml incubated for 24 hrs by disk diffusion method; type: functional; conditions: read-out: IZ
Escherichia coli [9] = assay: Antibacterial activity against Escherichia coli assessed as zone of inhibition at 100 ug/ml; type: functional; conditions: read-out: IZ
Escherichia coli [10] = assay: Antimicrobial activity against Escherichia coli assessed as inhibition zone at 200 ug/ml incubated for 24 hrs by disk diffusion method; type: functional; conditions: read-out: IZ
Bacillus subtilis [11] = assay: Antimicrobial activity against Bacillus subtilis assessed as inhibition zone at 200 ug/ml incubated for 24 hrs by disk diffusion method; type: functional; conditions: read-out: IZ
Pseudomonas aeruginosa [12] = assay: Antibacterial activity against Pseudomonas aeruginosa assessed as inhibition of bacterial growth by CLSI protocol based microdilution assay; type: functional
MCF7 = assay: Cytotoxicity against human MCF7 cells assessed as reduction in cell viability by tryphan blue exclusion dye method; type: functional, cell-based
HT-29 = assay: Cytotoxicity against human HT-29 cells assessed as reduction in cell viability by tryphan blue exclusion dye method; type: functional, cell-based
Staphylococcus aureus [13] = assay: Antibacterial activity against linezolid and methicillin-resistant Staphylococcus aureus assessed as inhibition of bacterial growth; type: functional
Enterococcus [14] = assay: Antibacterial activity against linezolid and vancomycin-resistant Enterococcus assessed as inhibition of bacterial growth; type: functional
Bacillus subtilis [15] = assay: Antibacterial activity against Bacillus subtilis assessed as zone of inhibition at 100 ug/ml; type: functional; conditions: read-out: IZ
Listeria monocytogenes = assay: Antibacterial activity against Listeria monocytogenes assessed as inhibition of bacterial growth by CLSI protocol based microdilution assay; type: functional
Staphylococcus aureus [16] = assay: Antibacterial activity against Staphylococcus aureus assessed as inhibition of bacterial growth by CLSI protocol based microdilution assay; type: functional
Enterococcus faecalis [17] = assay: Antibacterial activity against Enterococcus faecalis ATCC 51299 assessed as inhibition of bacterial growth by CLSI protocol based microdilution assay; type: functional
Enterococcus faecalis [18] = assay: Antibacterial activity against Enterococcus faecalis ATCC 29212 assessed as inhibition of bacterial growth by CLSI protocol based microdilution assay; type: functional
Bacillus subtilis [19] = assay: Antibacterial activity against Bacillus subtilis assessed as inhibition of bacterial growth measured per 100 uL incubated for 24 hrs by agar well diffusion method; type: functional
Staphylococcus aureus [20] = assay: Antibacterial activity against Staphylococcus aureus assessed as inhibition of bacterial growth measured per 100 uL incubated for 24 hrs by agar well diffusion method; type: functional
Escherichia coli [21] = assay: Antibacterial activity against Escherichia coli assessed as inhibition of bacterial growth measured per 100 uL incubated for 24 hrs by agar well diffusion method; type: functional
Pseudomonas aeruginosa [22] = assay: Antibacterial activity against Pseudomonas aeruginosa assessed as inhibition of bacterial growth measured per 100 uL incubated for 24 hrs by agar well diffusion method; type: functional
Candida albicans [23] = assay: Antifungal activity against Candida albicans assessed as inhibition of fungal growth incubated measured per 100 uL incubated for 24 hrs by agar well diffusion method; type: functional
Saccharomyces cerevisiae = assay: Antifungal activity against Saccharomyces cerevisiae assessed as inhibition of fungal growth incubated measured per 100 uL incubated for 24 hrs by agar well diffusion method; type: functional
Staphylococcus aureus [24] = assay: Antibacterial activity against methicillin-resistant Staphylococcus aureus WIS 441 infected in Galleria mellonella larvae incubated for 6 days; type: functional; conditions: time 6 day
Streptococcus sp. [25] = assay: Antibacterial activity against wild-type beta-hemolytic Streptococcus sp. by broth dilution assay; type: functional
Streptococcus sp. [26] = assay: Antibacterial activity against wild-type Streptococcus sp. by broth dilution assay; type: functional
Streptococcus sp. [27] = assay: Antibacterial activity against linezolid-resistant Streptococcus sp. by broth dilution assay; type: functional
Staphylococcus aureus [28] = assay: Antibacterial activity against Staphylococcus aureus assessed as fold increase relative to linezolid; type: functional
Enterococcus [29] = assay: Antibacterial activity against Enterococcus assessed as fold increase relative to linezolid; type: functional

O=C(/C=C/c1ccc(F)cc1)c1ccc(-c2ccc(N3C[C@H](CO)OC3=O)cc2)cc1
MIC (Staphylococcus aureus [1]): 3.12 µg/mL (≈ 7.49 µM) | MIC (Bacillus subtilis [2]): 3.12 µg/mL (≈ 7.49 µM) | MIC (Enterococcus faecalis [3]): 3.12 µg/mL (≈ 7.49 µM) | MIC (Escherichia coli [4]): 3.12 µg/mL (≈ 7.49 µM) | MIC (Klebsiella pneumoniae): 3.12 µg/mL (≈ 7.49 µM) | MIC (Pseudomonas aeruginosa [5]): 3.12 µg/mL (≈ 7.49 µM) | MIC (Candida albicans [6]): 12.5 µg/mL (≈ 29.9 µM) | MIC (Aspergillus niger): 12.5 µg/mL (≈ 29.9 µM)

O=C(NO)[C@@H]1CN(c2ccc(C#CC#CC3CC3)cc2)C(=O)O1
MIC (Escherichia coli [7]): 0.03 µg/mL (≈ 0.0967 µM) | MIC (Pseudomonas aeruginosa [8]): > 10 µg/mL

Nc1ccc(C#CC#Cc2ccc(N3C[C@@H](C(=O)NO)OC3=O)cc2)cc1
MIC (Escherichia coli [7]): 0.02 µg/mL (≈ 0.0553 µM) | MIC (Pseudomonas aeruginosa [8]): > 10 µg/mL

O=C(NO)[C@@H]1CN(c2ccc(-c3ccccc3)cc2)C(=O)O1
MIC (Escherichia coli [7]): 50 µg/mL (≈ 168 µM) | MIC (Pseudomonas aeruginosa [8]): > 10 µg/mL

CS(=O)(=O)CCCOc1ccc(C#Cc2ccc(N3C[C@@H](C(=O)NO)OC3=O)cc2)cc1
MIC (Escherichia coli [7]): 6.25 µg/mL (≈ 13.6 µM) | MIC (Pseudomonas aeruginosa [8]): > 10 µg/mL

O=C(/C=C/c1cccc(F)c1)c1ccc(-c2ccc(N3C[C@H](CO)OC3=O)cc2)cc1
MIC (Staphylococcus aureus [1]): 3.12 µg/mL (≈ 7.49 µM) | MIC (Bacillus subtilis [2]): 3.12 µg/mL (≈ 7.49 µM) | MIC (Enterococcus faecalis [3]): 3.12 µg/mL (≈ 7.49 µM) | MIC (Escherichia coli [4]): 3.12 µg/mL (≈ 7.49 µM) | MIC (Klebsiella pneumoniae): 3.12 µg/mL (≈ 7.49 µM) | MIC (Pseudomonas aeruginosa [5]): 3.12 µg/mL (≈ 7.49 µM) | MIC (Candida albicans [6]): 12.5 µg/mL (≈ 29.9 µM) | MIC (Aspergillus niger): 12.5 µg/mL (≈ 29.9 µM)

CNS(=O)(=O)c1ccc(C#CC#Cc2ccc(N3C[C@@H](C(=O)NO)OC3=O)cc2)cc1
MIC (Escherichia coli [7]): 0.078 µg/mL (≈ 0.177 µM) | MIC (Pseudomonas aeruginosa [8]): > 10 µg/mL

CS(=O)(=O)CCOc1ccc(C#Cc2ccc(N3C[C@@H](C(=O)NO)OC3=O)cc2)cc1
MIC (Escherichia coli [7]): 50 µg/mL (≈ 112 µM) | MIC (Pseudomonas aeruginosa [8]): > 10 µg/mL

OC(Cn1cncn1)(Cn1cncn1)c1ccc(F)cc1F [FLUCONAZOLE]
zone of inhibition at 200 µg/mL (Fusarium oxysporum): 23 mm

O=C(/C=C/c1ccccc1F)c1ccc(-c2ccc(N3C[C@H](CO)OC3=O)cc2)cc1
MIC (Staphylococcus aureus [1]): 3.12 µg/mL (≈ 7.49 µM) | MIC (Bacillus subtilis [2]): 3.12 µg/mL (≈ 7.49 µM) | MIC (Enterococcus faecalis [3]): 3.12 µg/mL (≈ 7.49 µM) | MIC (Escherichia coli [4]): 3.12 µg/mL (≈ 7.49 µM) | MIC (Klebsiella pneumoniae): 3.12 µg/mL (≈ 7.49 µM) | MIC (Pseudomonas aeruginosa [5]): 3.12 µg/mL (≈ 7.49 µM) | MIC (Candida albicans [6]): 12.5 µg/mL (≈ 29.9 µM) | MIC (Aspergillus niger): 12.5 µg/mL (≈ 29.9 µM)

O=C(NO)[C@@H]1CN(c2ccc(C#CC#CC3CCCC3)cc2)C(=O)O1
MIC (Escherichia coli [7]): 0.015 µg/mL (≈ 0.0443 µM) | MIC (Pseudomonas aeruginosa [8]): > 10 µg/mL

CCCN1C(=O)C(N2C(=O)OCC2Cc2ccc(/N=C/c3ccccc3)cc2)C1c1ccc(Cl)cc1Cl (centres undefined)
zone of inhibition at 100 µg/mL (Escherichia coli [9]): 24 mm

O=C1NC2(CO1)O/C(=C\c1ccc([N+](=O)[O-])cc1)C(=O)N2CCCNc1ccnc2cc(Cl)ccc12 (centres undefined)
zone of inhibition at 200 µg/mL (Escherichia coli [10]): 14 mm | zone of inhibition at 200 µg/mL (Bacillus subtilis [11]): 14 mm | zone of inhibition at 200 µg/mL (Fusarium oxysporum): 14 mm

COc1ccc(NC(=S)Nc2ccc(C[C@H]3COC(=O)N3)cc2)cc1
MIC (Pseudomonas aeruginosa [12]): 50 µg/mL (≈ 140 µM)

O=C1NC2(CO1)O/C(=C\c1ccc(Cl)cc1)C(=O)N2CCCNc1ccnc2cc(Cl)ccc12 (centres undefined)
zone of inhibition at 200 µg/mL (Escherichia coli [10]): 13 mm | zone of inhibition at 200 µg/mL (Bacillus subtilis [11]): 14 mm | zone of inhibition at 200 µg/mL (Fusarium oxysporum): 10 mm | IC50 (MCF7): 16.1 µg/mL (≈ 32.2 µM) | IC50 (HT-29): 32.4 µg/mL (≈ 64.9 µM)

O=C(NC[C@H]1CN(c2ccc(N3CCOCC3)c(F)c2)C(=O)O1)C(Cl)Cl
MIC (Staphylococcus aureus [13]): 0.25 µg/mL (≈ 0.615 µM) | MIC (Enterococcus [14]): 0.25 µg/mL (≈ 0.615 µM)

O=C(N[C@H](CO)[C@H](O)c1ccc([N+](=O)[O-])cc1)C(Cl)Cl [CHLORAMPHENICOL]
zone of inhibition at 100 µg/mL (Escherichia coli [9]): 38 mm | zone of inhibition at 100 µg/mL (Bacillus subtilis [15]): 37 mm | MIC (Pseudomonas aeruginosa [12]): 50 µg/mL (≈ 155 µM) | MIC (Listeria monocytogenes): 50 µg/mL (≈ 155 µM) | MIC (Staphylococcus aureus [16]): 50 µg/mL (≈ 155 µM) | MIC (Enterococcus faecalis [17]): 50 µg/mL (≈ 155 µM) | MIC (Enterococcus faecalis [18]): 50 µg/mL (≈ 155 µM)

O=C(CCl)NC[C@H]1CN(c2ccc(N3CCOCC3)c(F)c2)C(=O)O1
MIC (Staphylococcus aureus [13]): 0.13 µg/mL (≈ 0.35 µM) | MIC (Enterococcus [14]): 0.13 µg/mL (≈ 0.35 µM)

O=C1N[C@@H](Cc2ccc(NC(=S)Nc3ccc(Br)cc3)cc2)CO1
MIC (Listeria monocytogenes): 25 µg/mL (≈ 61.5 µM) | MIC (Staphylococcus aureus [16]): 25 µg/mL (≈ 61.5 µM) | MIC (Enterococcus faecalis [17]): 25 µg/mL (≈ 61.5 µM) | MIC (Enterococcus faecalis [18]): 25 µg/mL (≈ 61.5 µM)

COc1ccc(/C=C2\OC3(COC(=O)N3)N(CCCNc3ccnc4cc(Cl)ccc34)C2=O)cc1 (centres undefined)
zone of inhibition at 200 µg/mL (Escherichia coli [10]): 11 mm | zone of inhibition at 200 µg/mL (Bacillus subtilis [11]): 10 mm | zone of inhibition at 200 µg/mL (Fusarium oxysporum): 9 mm

O=C1NC(Cc2ccc(Nc3nc(-c4ccc(Br)cc4)cs3)cc2)CO1 (centres undefined)
MIC (Bacillus subtilis [19]): 6.25 µg | MIC (Staphylococcus aureus [20]): 6.25 µg | MIC (Escherichia coli [21]): 12.5 µg | MIC (Pseudomonas aeruginosa [22]): 12.5 µg | MIC (Candida albicans [23]): 12.5 µg | MIC (Saccharomyces cerevisiae): 12.5 µg

Cn1nnc(-c2ccc(-c3ccc(N4C[C@H](CO)OC4=O)cc3F)cn2)n1 [TEDIZOLID]
MED (Staphylococcus aureus [24]): 2 mg/L | MIC90 (Streptococcus sp. [25]): 0.25 µg/mL (≈ 0.675 µM) | MIC90 (Streptococcus sp. [26]): 0.25 µg/mL (≈ 0.675 µM) | MIC90 (Streptococcus sp. [27]): 8 µg/mL (≈ 21.6 µM) | fold change (FC) (Staphylococcus aureus [28]): 4 | fold change (FC) (Enterococcus [29]): 4

O=C(NO)[C@@H]1CN(c2ccc(C#CC#Cc3ccccc3)cc2)C(=O)O1
MIC (Escherichia coli [7]): 0.12 µg/mL (≈ 0.346 µM) | MIC (Pseudomonas aeruginosa [8]): > 10 µg/mL

CCCN1C(=O)C(N2C(=O)OCC2Cc2ccc(/N=C/c3ccccc3)cc2)C1c1ccc(OC)cc1OC (centres undefined)
zone of inhibition at 100 µg/mL (Bacillus subtilis [15]): 23 mm

O=C(NO)[C@@H]1CN(c2ccc(C#Cc3ccccc3)cc2)C(=O)O1
MIC (Escherichia coli [7]): 0.625 µg/mL (≈ 1.94 µM) | MIC (Pseudomonas aeruginosa [8]): > 10 µg/mL
